Results reported in publication PMC12434091, “Real-time monitoring with iTLR4 assay identifies ligand-dependent TLR4-TLR4 conformational dynamics” (Frontiers in Immunology, 2025).

Molecular target: T1, Toll-like receptor 4 (TLR4) (Homo sapiens, UniProt O00206)
T1 construct: HA-TLR4-NLuc and HA-TLR4-Venus (C-terminal tags); with MD2 and CD14 (co-expressed; not required)
Experiment: BRET TLR4-TLR4 proximity assay (iTLR4) in transfected HEK293 cells
Type: cell-based

T1 sequence (O00206 24-839): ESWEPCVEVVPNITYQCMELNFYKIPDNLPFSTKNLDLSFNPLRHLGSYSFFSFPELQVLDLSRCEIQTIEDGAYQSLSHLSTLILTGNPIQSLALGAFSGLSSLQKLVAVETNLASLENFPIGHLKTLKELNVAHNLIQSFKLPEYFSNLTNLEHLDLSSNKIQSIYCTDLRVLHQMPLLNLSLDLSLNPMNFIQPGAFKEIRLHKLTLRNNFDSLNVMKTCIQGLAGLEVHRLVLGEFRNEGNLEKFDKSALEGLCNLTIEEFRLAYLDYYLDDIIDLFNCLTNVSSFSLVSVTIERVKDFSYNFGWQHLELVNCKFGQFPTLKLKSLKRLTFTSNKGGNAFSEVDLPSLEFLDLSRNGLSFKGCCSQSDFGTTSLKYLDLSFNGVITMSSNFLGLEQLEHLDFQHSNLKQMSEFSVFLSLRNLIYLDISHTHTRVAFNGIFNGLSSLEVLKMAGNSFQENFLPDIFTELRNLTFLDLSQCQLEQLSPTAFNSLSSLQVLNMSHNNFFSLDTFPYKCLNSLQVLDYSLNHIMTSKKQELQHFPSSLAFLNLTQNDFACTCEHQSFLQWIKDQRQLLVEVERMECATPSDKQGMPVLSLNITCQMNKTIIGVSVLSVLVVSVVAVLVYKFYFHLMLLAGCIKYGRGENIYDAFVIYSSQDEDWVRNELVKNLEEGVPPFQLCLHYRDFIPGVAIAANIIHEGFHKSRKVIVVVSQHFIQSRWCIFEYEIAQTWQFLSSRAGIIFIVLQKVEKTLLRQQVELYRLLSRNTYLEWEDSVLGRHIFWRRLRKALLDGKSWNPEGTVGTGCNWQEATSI
T1 sequence (Q9Y6Y9 19-160 partner): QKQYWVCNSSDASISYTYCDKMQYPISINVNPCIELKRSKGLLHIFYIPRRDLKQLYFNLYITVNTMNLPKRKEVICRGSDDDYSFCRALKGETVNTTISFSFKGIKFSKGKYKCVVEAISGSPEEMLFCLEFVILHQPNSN
T1 sequence (P08571 20-345 partner): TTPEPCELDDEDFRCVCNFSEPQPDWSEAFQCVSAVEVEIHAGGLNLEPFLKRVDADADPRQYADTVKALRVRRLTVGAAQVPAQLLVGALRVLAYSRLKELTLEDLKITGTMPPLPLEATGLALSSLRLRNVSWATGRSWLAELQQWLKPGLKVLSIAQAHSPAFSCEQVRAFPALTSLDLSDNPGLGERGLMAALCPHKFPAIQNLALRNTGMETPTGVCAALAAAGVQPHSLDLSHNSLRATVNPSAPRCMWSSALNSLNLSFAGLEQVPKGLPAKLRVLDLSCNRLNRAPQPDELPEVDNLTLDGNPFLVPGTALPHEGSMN

Question: Which EC50 does the source give for `C=CCN1CC[C@@]23c4c5ccc(O)c4O[C@@H]2C(=O)CC[C@]3(O)[C@@H]1C5` [(+)-naloxone] here?
Answer: Its EC50 is 4.2 µM.

Question: How did the EC50 turn out when `C=CCN1CC[C@]23c4c5ccc(O)c4O[C@H]2C(=O)CC[C@@]3(O)[C@H]1C5` [(-)-naloxone] was run?
Answer: The EC50 was 3 µM.
